Data: a melting point compilation (Tetko et al.; mined from patent text by program, amines drawn as free bases though some values may be those of a salt)

Structure (SMILES)	melting point
CC1(C)Oc2ccc(C(N)=O)cc2[C@H](NCCc2ccccc2)[C@H]1O (relative stereo)	162 °C
CNC(=O)c1cccc(C)c1Nc1nc(Nc2ccc3c(c2)C(=O)NCCC3)ncc1Cl	259 °C
CC(C)(C)c1cc(-c2nn(CCN3CCCC3=O)c3ncccc23)cc(C(C)(C)C)c1O	148 to 150 °C
CCN(CC)CCCC1CCCCN1C(=O)N1c2ccccc2C(=O)Nc2cccnc21 (stereo not given)	125 to 128 °C
CCCN1CCC(O)(c2cc(F)cc(F)c2)C1 (stereo not given)	117 to 118 °C
CC(C)CC(=O)N1CCC(NC(=O)c2ccccc2Oc2ccc(Cl)cc2Cl)CC1	57 to 60 °C
NC(=O)c1cc2c(cc1OCC1CCCCC1)OCCC[C@H]2O	164 to 165 °C
CCCCC(=N)NC(=O)Nc1ccccc1Cl	132 to 134 °C
CCCCn1c(=O)n(CCC(C)(O)C#CCN(CCC)CCC)c(=O)c2c1ncn2CCC (stereo not given)	101 °C
COC(=O)C(=O)c1ccc(OCCOc2ccc3cc4ccccc4cc3c2)cc1	188 to 189 °C
O=S(=O)(Nc1ccc(Cl)cc1-c1nc2ccccc2[nH]1)c1ccc(Cl)cc1	225 to 228 °C
CSc1cc2ncnc(Cl)c2s1	138 to 140 °C
CC1CC(=O)N(Cc2ccccc2)c2ccccc2N1C(=O)CN1C(=O)c2ccccc2C1=O (stereo not given)	248 to 250 °C
CC(=O)c1ccc(S(=O)(=O)NCCO)cc1	119 to 121 °C
COC1=CC(=O)C=C(Br)C1=O	157 to 158 °C
O=c1[nH]c(NCCCN(Cc2ccccc2)c2ccccn2)ncc1Cc1ccc(Cl)cc1	80 to 86 °C
CC(C)(Oc1ccc(OCc2ccccc2)cc1)C(=O)O	134 to 137 °C
CC(=O)Nc1ccccc1CS(=O)c1nccn1-c1ccncc1 (stereo not given)	147 to 149 °C
Cc1cc(C)c2cccc(OCc3c(Cl)ccc(S(=O)(=O)N4CCC[C@H]4C(=O)N4CCN(C(=O)c5cccc(C(N)=NO)c5)CC4)c3Cl)c2n1	160 °C
CC1CC2=C(OC(NC=N)C2)c2ccc(=O)[nH]c21 (stereo not given)	> 250 °C

Structure (SMILES)	melting point
CC(C)(C=O)C(=O)Nc1ccc(Cl)cc1	99 to 100 °C
Clc1ccc2nc(-c3ccccc3)cc(CCC3CCCNC3)c2c1 (stereo not given)	> 260 °C
COCOc1cc(OC)ccc1C=O	55 to 56 °C
CCSc1nnc(-c2ccccc2)n1Cc1ccc(N)cc1	126 to 127 °C
COCOC1CCC2(C)C(=CCC3C4CCC(=O)C4(C)CCC32)C1 (stereo not given)	130 to 132 °C
Cc1cn(CCCN2C(=O)c3ccc(Cl)c(Cl)c3C2=O)cn1	147 to 151 °C
Cc1cc2nc(Cl)c3cnc(Cl)cc3n2n1	203 °C
CCCCn1c(=O)c2c(NC)n[nH]c2n(Cc2ccccc2)c1=O	282 to 284 °C
COC(=O)CNC(=O)c1nc(Cl)c2ccccc2c1O	129 °C
NC(c1ccc(Cl)cc1Cl)P(O)O (stereo not given)	244 °C
CC(C)Oc1c(-c2ccc(S(C)(=O)=O)cc2)cnn(-c2cc(F)ccc2F)c1=O	161 to 164 °C
O=C(Nc1c(C(O)(C(F)(F)F)C(F)(F)F)ccc2ccccc12)c1ccno1	162 to 164 °C
Clc1ccc2c(c1)C(c1ccccc1)=NCc1nnc(CNCC3CC3)n1-2	154 to 157 °C
Cc1ccc(Sc2ncnc3ccccc23)cc1	96 °C
COc1cccc2cnc(C)nc12	131 to 132 °C
CCOC(=O)c1[nH]c2ccc(Cl)cc2c1Sc1ccccc1	160 to 162 °C
CCc1ccc(CCc2ccc(-c3ccc(OC(F)F)cc3)cc2)cc1	131 °C
CC#CCOc1ccc(S(=O)(=O)C2(C(=O)O)CCN(Cc3ccc(OCCN4CCCCC4)cc3)CC2)cc1	172 °C
OCc1cn(Cc2ccccc2)c(-c2ccc(OCc3ccccc3)cc2)n1	129 to 131 °C
C=CCN(CC=C)c1nc(NC(=O)C=C(C)C)n2oc(=O)nc2n1	165 to 166 °C

Structure (SMILES)	melting point
COc1c(Cl)cccc1N1CN(C)C(=S)n2ncnc21	208 to 210 °C
CCC(=O)Nc1cc(C(C)(C)C)[nH]n1	228 to 229 °C
COc1cc(C=C2C(=O)CCc3cc(OC)c(OC)cc32)c([N+](=O)[O-])cc1OC	65 to 66 °C
CC(C)N(C)c1nccc(Oc2ccc(NC(=O)c3cc(F)cc(N4CCCCC4)c3)c3ccccc23)n1	102 to 104 °C
O=C(Cc1cccs1)c1c(O)sc2ccccc12	99 to 101 °C
COc1cc(Br)ccc1Oc1ccccc1O	107 to 109 °C
CC(=O)N(C)c1scc(C)c1C(=O)c1ccccc1	122 °C
CCCCOc1ccc2ccccc2c1-c1c(OCCCC)ccc2ccccc12	85 °C
CC(=O)Nc1ccc(Nc2ccccc2[N+](=O)[O-])cc1	164 to 166 °C
Fc1ccc(-n2c3c(c4cc(F)ccc42)CNCC3)cc1	126 to 129 °C
CC(C)(C)C(=O)OCn1nc2ccc(OCCCN3CCC(OC(c4ccccc4)c4ccccc4)CC3)nn2c1=O	108 to 110 °C
CCCCCCc1nc2c(N)nc3ccccc3c2n1CCCCNS(C)(=O)=O	170 to 171 °C
CCCc1c(OCCCCCCc2cc(O)c(O)c(C(C)C)c2)ccc(C(=O)O)c1O	138 to 140 °C
CCC12CCC3C4CCC(=O)C=C4C(C)CC3C1CCC2O (stereo not given)	127 to 130 °C
Cc1ccc(C2=C(C(=O)O)N(CC(C)C)Cc3ccc(OCc4ccccc4)cc32)cc1	153 to 154 °C
CCOC(=O)/C=C(C)/C=C/C=C(\C)C1=Cc2cc(C(C)(C)C)cc(C)c2OC1	73 °C
CC(C)(C)OC(=O)N1CCN(c2ccc(C#N)c(F)c2)CC1	130 to 131 °C
O=Cc1ccc2c(c1)OCC(=O)N2	178 to 180 °C
COCOc1cc(C(F)(F)F)ccc1-c1cc(-c2cccc([N+](=O)[O-])c2)c(C#N)c(NC(=O)c2cccs2)n1	139 to 140 °C
N=C(NO)c1ccc(-c2cccc(-c3cn4cc(C(=N)NO)ccc4n3)c2)cc1	252 to 254 °C

More lines, now with the values ahead:

melting point	Structure (SMILES)
172 to 173 °C	O=C(NCCO)c1ccnc(-c2cccc3cc(Cc4cc(F)cc(Cl)c4)sc23)c1
238 to 242 °C	Nc1ncnc2c1ncn2Cc1oc2ccc(Br)cc2c(=O)c1-c1ccc(F)cc1
275 to 278 °C	CNC(=O)c1ccc(C)c(-c2nc(S(C)(=O)=O)nc3c2CNC(=O)N3c2c(F)cccc2F)c1
149 to 151 °C	COC(=O)C1=CCC(=C2CCc3nc4c(nc3C2=O)C(C)(C)CCC4(C)C)C=C1
72 to 75 °C	CC(=O)c1cc(CN2CCN(CCO)CC2)ccc1O
90 to 92 °C	COC(=O)c1c(C)sc2cc(CCn3ccnc3)ccc12
172 °C	CN1C(O)=C(C(=O)Nc2ccc(Cl)cc2)c2sccc2S1(=O)=O
243 to 244 °C	N#Cc1ccc2oc(CCc3cc4cc(C#N)ccc4o3)cc2c1
206 to 208 °C	CN(C)C(=O)N(C)Cc1cccc2c1C(=O)N(C1CCC(=O)NC1=O)C2=O (stereo not given)
125 to 127 °C	Cc1sc(N)c(C(=O)c2ccc(Cl)s2)c1C
179 to 181 °C	CC(Cc1c[nH]c2ccccc12)(NC(=O)OCC1c2ccccc2-c2ccccc21)C(=O)NCCc1ccccc1 (stereo not given)
132 to 134 °C	CCOC(=O)c1ccc(-c2nc3ccccc3s2)cc1
69 to 71 °C	COc1ccc(N)c(CCc2cc(OC)ccc2N)c1
149 °C	COc1ccc(C(=O)c2cc(-c3cccnc3)c(N3CCOCC3)s2)cc1
65 °C	Clc1cccc(C2=NOCCS2)c1
176 to 177 °C	O=c1cc(C(F)(F)F)ccn1-c1c(Cl)cc(C(Cl)Cl)cc1Cl
60 to 63 °C	Cc1cc(Cn2nc(C(F)(F)C(F)(F)F)nc2C(F)(F)F)ccc1N
192 to 195 °C	Cc1ccccc1-c1cnc2c(C(F)(F)F)cccc2c1-c1cccc(NC(=O)Nc2ccccc2)c1
151 to 152 °C	Nc1ccccc1Sc1ccc([N+](=O)[O-])cc1[N+](=O)[O-]
117 to 119 °C	Oc1ccc(-c2cccc3sc4ccccc4c23)cc1

melting point	Structure (SMILES)
163 to 164 °C	FC(F)(F)COc1ccc(-c2nc3n(c2-c2ccc(OCC(F)(F)F)cc2)CCS3)cc1
123 to 125 °C	C=C(C)c1ccc(C2=NC(=O)C(C)(C(=C)C)N2)nc1 (stereo not given)
136 to 138 °C	C#CCn1nc(-c2ccc(SC)cc2)c(-c2ccc(F)cc2)c1C(F)(F)F
81 to 83 °C	CCCCCCCCC(Sc1ccccn1)C(=O)Nc1cccc2cnccc12 (stereo not given)
104 to 106 °C	CCN(C=Nc1ccncc1O)CC
> 300 °C	NC(=O)c1ccc(-c2nccc3[nH]c(=O)ccc23)cc1
178 °C	COc1ccc2cccnc2c1[N+](=O)[O-]
125 to 128 °C	CC(=O)NC(C)c1c[nH]c(C)n1 (stereo not given)
140 to 150 °C	CC12CCC(OS(=O)(=O)C(F)(F)F)=CC1=CCC1C2CCC2(C)C(C(=O)O)CCC12 (stereo not given)
63 to 66 °C	COC1=C(OC)C(=O)C2=C(CC(CCCCCCCC(=O)O)(c3ccccc3)C2)C1=O
131 to 144 °C	C#CCOC(=O)c1ccccc1C1=NC(=O)C(C)(C(C)C)N1 (stereo not given)
107 to 108 °C	CC(C)(COc1ccc(CSC2NC(=O)CC2=O)cc1)c1ccccc1 (stereo not given)
155 to 156 °C	CC(C)(C)c1ccc(CCC(=O)C2CCCCCC2)cc1NC(=O)CC1c2ccccc2Oc2ccccc21
133 to 134 °C	COc1ccc(C2(c3ccc(OC)c(OC)c3)CCC(=O)O2)cc1OC
129 to 132 °C	Cc1noc(NS(=O)(=O)c2ccc(-c3ccccc3)cc2)c1Cl
190 °C	O=C(Nc1cccc(Cl)c1)N1CCc2cc(S(=O)(=O)N3CCN(c4cccc(Cl)c4)CC3)ccc21
252 to 254 °C	CCOCc1nc2c(N)nc3ccc(O)cc3c2n1CC(C)(C)NS(C)(=O)=O
148 to 150 °C	COc1ccccc1COc1ccc(S(=O)(=O)c2ccc(C)nc2Nc2c(C)cc(C)cc2C)cc1
284 to 296 °C	CC1(C)Cc2c(ccc3c2C(c2cccc(-c4ccc(C(N)=O)cc4)c2)=NCC3(C)C)O1
225 to 226 °C	COc1ccc(C(=O)COc2ccc(C(=O)O)c(O)c2)cc1C12CC3CC(CC(C3)C1)C2
